Consider 25 compounds from patent publication US8987314B2, “Amide, urea or sulfone amide linked benzothiazole inhibitors of endothelial lipase” (Bristol-Myers Squibb Company, priority 2012, dated 2015).

For one assay, the target named is hepatic lipase (HL) (Homo sapiens (Human), UniProt P11150). Put plainly: HL assay: hepatic lipase activity with fluorescent substrate A10070 in DMPG vesicles. It is filed as biochemical. The essentials: (§1)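 Substrate A10070 sits in sonicated DMPG vesicles at 0.11 mole fraction. Lipase and compound preincubated 30 min, 37° C, in HEPES pH 8.0 buffer with CaCl2.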
The next assay deals with Endothelial lipase (EL) (Homo sapiens (Human), UniProt Q9Y5X9). Description: EL assay: endothelial lipase activity with fluorescent substrate A10070 in DMPG vesicles. It is filed as biochemical. The procedure, abridged: as §1
Where [1] appears, read: HL partially purified from conditioned media of COS cells, 30 min incubation with compound at 37° C., A10070/DMPG vesicles.
The mark [2] stands for this setting: EL from conditioned media of HT-1080 cells, 30 min incubation with compound at 37° C., A10070/DMPG vesicles.

Read-outs that look alike come from different tables or passages of the source.

The term IC50 denotes the concentration at which inhibition is half-maximal.

Endothelial lipase (EL), sequence (Q9Y5X9 21-500): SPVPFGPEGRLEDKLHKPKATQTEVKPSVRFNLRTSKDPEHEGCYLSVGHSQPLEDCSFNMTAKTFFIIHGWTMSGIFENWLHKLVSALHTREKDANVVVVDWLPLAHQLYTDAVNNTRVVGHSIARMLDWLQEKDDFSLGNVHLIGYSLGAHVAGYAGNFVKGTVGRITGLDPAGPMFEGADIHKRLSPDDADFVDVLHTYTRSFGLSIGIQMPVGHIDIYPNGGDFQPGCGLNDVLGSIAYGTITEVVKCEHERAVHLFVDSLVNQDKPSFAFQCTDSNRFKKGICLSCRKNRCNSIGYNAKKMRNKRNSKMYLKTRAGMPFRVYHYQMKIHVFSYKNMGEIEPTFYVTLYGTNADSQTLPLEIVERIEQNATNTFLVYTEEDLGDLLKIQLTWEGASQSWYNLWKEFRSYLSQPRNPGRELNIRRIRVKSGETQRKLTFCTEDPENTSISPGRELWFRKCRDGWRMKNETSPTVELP
hepatic lipase (HL), sequence (P11150 23-499, species assumed): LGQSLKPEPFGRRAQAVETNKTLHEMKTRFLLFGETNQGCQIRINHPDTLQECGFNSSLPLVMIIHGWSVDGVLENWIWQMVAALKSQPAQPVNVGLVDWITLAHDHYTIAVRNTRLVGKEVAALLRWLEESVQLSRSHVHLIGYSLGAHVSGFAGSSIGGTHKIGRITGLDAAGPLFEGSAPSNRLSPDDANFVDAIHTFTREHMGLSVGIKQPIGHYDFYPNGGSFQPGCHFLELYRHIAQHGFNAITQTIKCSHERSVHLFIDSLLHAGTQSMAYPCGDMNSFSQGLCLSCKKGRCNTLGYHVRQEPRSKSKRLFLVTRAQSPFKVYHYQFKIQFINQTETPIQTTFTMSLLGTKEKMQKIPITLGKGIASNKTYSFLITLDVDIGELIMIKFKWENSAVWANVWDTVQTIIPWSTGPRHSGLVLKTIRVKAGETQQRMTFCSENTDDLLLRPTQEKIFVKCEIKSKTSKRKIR

In the case of `COCCS(=O)(=O)C(C(=O)NCc1nnc(C)o1)c1nc2cc(F)c(-c3ccccc3)cc2s1` (centres unmarked) [Example B155, 2-(5-fluoro-6-phenyl-1,3-benzothiazol-2-yl)-2-[(2-methoxyethyl)sulfonyl]-N-[(5-methyl-1,3,4-oxadiazol-2-yl)methyl]acetamide], the IC50 at hepatic lipase (HL) and against Endothelial lipase (EL) was less than 10 nM in each case.

With `CC(C)(C)OC(=O)c1ccc(-c2ccc3nc(C(C(=O)NCCS(N)(=O)=O)S(C)(=O)=O)sc3c2)cc1` (centres unmarked) [Example B156, tert-butyl 4-(2-(1-(methylsulfonyl)-2-oxo-2-(2-sulfamoylethylamino)eth-yl)benzo[d]thiazol-6-yl)benzoate], the IC50 against hepatic lipase (HL) and at Endothelial lipase (EL) was less than 10 nM in each case.

Turning to `NS(=O)(=O)CCNC(=O)C(c1nc2ccc(-c3ccc(C(=O)N4CCOCC4)cc3)cc2s1)S(=O)(=O)CCN1CCOCC1` (centres unmarked) [Example B157, 2-{6-[4-(4-Morpholinylcarbonyl)phenyl]-1,3-benzothiazol-2-yl}-2-{[2-(4-morpholinyl)ethyl]sulfonyl}-N-(2-sulfamoylethyl)acetamide], the IC50 on hepatic lipase (HL) (setting [1]) was 147 nM; on Endothelial lipase (EL) (setting [2]), less than 10 nM.

As for `NS(=O)(=O)CCNC(=O)C(c1nc2ccc(-c3ccc(C(=O)N4CCOCC4)cc3)cc2s1)S(=O)(=O)CCNC(=O)OCc1ccccc1` (centres unmarked) [Example B158, benzyl (2-((1-(6-(4-(4-morpholinylcarbonyl)phen-yl)-1,3-benzothiazol-2-yl)-2-oxo-2-((2-sulfamoyl-ethyl)amino)ethyl)sul-fonyl)ethyl)carbamate], the IC50 on hepatic lipase (HL) is 31 nM; on Endothelial lipase (EL) it was less than 10 nM.

As for `NCCS(=O)(=O)C(C(=O)NCCS(N)(=O)=O)c1nc2ccc(-c3ccc(C(=O)N4CCOCC4)cc3)cc2s1` (centres unmarked) [Example B159], the IC50 was 22 nM at hepatic lipase (HL) and less than 10 nM against Endothelial lipase (EL).

As to `NS(=O)(=O)CCNC(=O)C(c1nc2cc(F)c(-c3ccccc3)cc2s1)S(=O)(=O)CCN1CCOCC1` (centres unmarked) [Example B160, 2-(5-fluoro-6-phenyl-1,3-benzothiazol-2-yl)-2-((2-(4-morpholinyl)ethyl)sul-fonyl)-N-(2-sulfamoylethyl)acetamide], the IC50 against hepatic lipase (HL) was 20 nM; against Endothelial lipase (EL) it was less than 10 nM.

In the case of `NCCS(=O)(=O)C(C(=O)NCCS(N)(=O)=O)c1nc2ccc(-c3ccccc3)cc2s1` (centres unmarked) [Example B161, 2-((2-aminoethyl)sulfonyl)-2-(6-phenyl-1,3-benzothiazol-2-yl)-N-(2-sulfamoylethyl)acetamide], the figures for the IC50 against hepatic lipase (HL) and against Endothelial lipase (EL) were 22 nM and less than 10 nM, respectively.

In the case of `COCCn1cc(-c2ccc3nc(C(C(=O)NCCS(N)(=O)=O)S(C)(=O)=O)sc3c2)cn1` (centres unmarked) [Example B162, 2-(6-(1-(2-Methoxyethyl)-1H-pyrazol-4-yl)-1,3-benzothiazol-2-yl)-2-(methylsulfonyl)-N-(2-sulfamoylethyl)acetamide], the IC50 is 995 nM on hepatic lipase (HL) (setting [1]) and less than 10 nM at Endothelial lipase (EL) (setting [2]).

As to `COCCn1cc(-c2ccc3nc(C(C(=O)NCCS(N)(=O)=O)S(=O)(=O)Cc4ccc(F)cc4)sc3c2)cn1` (centres unmarked) [Example B163, 2-((4-fluorobenzyl)sul-fonyl)-2-(6-(1-(2-methoxyethyl)-1H-pyrazol-4-yl)-1,3-benzothiazol-2-yl)-N-(2-sulfamoylethyl)a-cetamide], the IC50 worked out at 2550 nM at hepatic lipase (HL) and 28 nM on Endothelial lipase (EL).

Take `COCCn1cc(-c2ccc3nc(C(C(=O)NCCS(N)(=O)=O)S(=O)(=O)CC4CC4)sc3c2)cn1` (centres unmarked) [Example B165, 2-((cyclopropylmethyl)sul-fonyl)-2-(6-(1-(2-methoxyethyl)-1H-pyrazol-4-yl)-1,3-benzothiazol-2-yl)-N-(2-sulfamoylethyl)a-cetamide]: the IC50 is 317 nM against hepatic lipase (HL) and 37 nM against Endothelial lipase (EL).

For the compound `CS(=O)(=O)C(C(=O)NCCS(N)(=O)=O)c1nc2ccc(-c3ccc(C(=O)N4CC(F)(F)C4)cc3)cc2s1` (centres unmarked) [Example B166, 2-(6-(4-(3,3-Difluoroazetidine-1-carbonyl)phenyl)benzo[d]thiazol-2-yl)-2-(methylsulfonyl)-N-(2-sulfamoylethyl)acetamide], the concentration for half-maximal inhibition (IC50) at hepatic lipase (HL) (setting [1]) was 13 nM; on Endothelial lipase (EL) (setting [2]), less than 10 nM.

For the compound `COCCS(=O)(=O)C(C(=O)NCCS(N)(=O)=O)c1nc2ccc(-c3ccc(C(=O)N4CC(F)(F)C4)cc3)cc2s1` (centres unmarked) [Example B167, 2-(6-(4-((3,3-difluoro-1-azetidinyl)carbonyl)phen-yl)-1,3-benzothiazol-2-yl)-2-((2-methoxyethyl)sul-fonyl)-N-(2-sulfamoylethyl)acetamide], the figures for the IC50 on hepatic lipase (HL) and at Endothelial lipase (EL) were 79 nM and less than 10 nM, respectively.

Consider `COCCS(=O)(=O)C(C(=O)NCCS(N)(=O)=O)c1nc2ccc(-c3ccc(C(=O)N4CCC(F)(F)C4)cc3)cc2s1` (centres unmarked) [Example B168, 2-(6-(4-((3,3-difluoro-1-pyrrolidinyl)carbonyl)phen-yl)-1,3-benzothiazol-2-yl)-2-((2-methoxyethyl)sul-fonyl)-N-(2-sulfamoyl-ethyl)acetamide], for which the IC50 against hepatic lipase (HL) was 60 nM; on Endothelial lipase (EL), less than 10 nM.

Turning to `CS(=O)(=O)C(C(=O)NCCS(N)(=O)=O)c1nc2ccc(-c3ccc(C(=O)N4CCC(F)(F)C4)cc3)cc2s1` (centres unmarked) [Example B169, 2-(6-(4-((3,3-difluoro-1-pyrrolidinyl)carbonyl)phen-yl)-1,3-benzothiazol-2-yl)-2-(methylsulfonyl)-N-(2-sulfamoylethyl)a-cetamide], the 50% inhibitory concentration (IC50) was 91 nM against hepatic lipase (HL) and less than 10 nM against Endothelial lipase (EL).

As for `NS(=O)(=O)CCNC(=O)C(c1nc2ccc(-c3ccc(C(=O)N4CCC(F)(F)C4)cc3)cc2s1)S(=O)(=O)CCC(F)(F)F` (centres unmarked) [Example B170, 2-(6-(4-((3,3-difluoro-1-pyrrolidinyl)carbonyl)phen-yl)-1,3-benzothiazol-2-yl)-N-(2-sulfamoylethyl)-2-((3,3,3-trifluoropropyl)sul-fonyl)acetamide], the IC50 was 32 nM at hepatic lipase (HL) and less than 10 nM on Endothelial lipase (EL).

For the compound `CS(=O)(=O)C(C(=O)NCCS(N)(=O)=O)c1nc2ccc(-c3ccc(C(=O)N4CCC(F)(F)CC4)cc3)cc2s1` (centres unmarked) [Example B171, 2-(6-(4-((4,4-difluoro-1-piperidinyl)carbonyl)phen-yl)-1,3-benzothiazol-2-yl)-2-(methylsulfonyl)-N-(2-sulfamoylethyl)a-cetamide], the results for the IC50 at hepatic lipase (HL) and at Endothelial lipase (EL) were 19 nM and less than 10 nM, respectively.

Regarding `COCCN(C)C(=O)c1ccc(-c2ccc3nc(C(C(=O)NCCS(N)(=O)=O)S(C)(=O)=O)sc3c2)cc1` (centres unmarked) [Example B172, N-(2-Methoxyethyl)-N-methyl-4-(2-(1-(methylsulfonyl)-2-oxo-2-((2-sulfamoylethyl)amino)ethyl)-1,3-benzothiazol-6-yl)benzamide], the IC50 is 77 nM on hepatic lipase (HL) (setting [1]) and less than 10 nM at Endothelial lipase (EL) (setting [2]).

As for `CS(=O)(=O)C(C(=O)NCCS(N)(=O)=O)c1nc2ccc(-c3ccc(C(=O)O)cc3)cc2s1` (centres unmarked) [Example B173, 4-(2-(1-(Methylsulfonyl)-2-oxo-2-(2-sulfamoylethylamino)ethyl)benzo[d]thiazol-6-yl)benzoic acid], the IC50 on hepatic lipase (HL) (setting [1]) is 274 nM; on Endothelial lipase (EL) (setting [2]), less than 10 nM.

With `CC1(O)CN(C(=O)c2ccc(-c3ccc4nc(C(C(=O)NCCS(N)(=O)=O)S(C)(=O)=O)sc4c3)cc2)C1` (centres unmarked) [Example B174, 2-(6-(4-(3-Hydroxy-3-methylazetidine-1-carbonyl)phenyl)benzo[d]thiazol-2-yl)-2-(methylsulfonyl)-N-(2-sulfamoylethyl)acetamide], the results for the IC50 at hepatic lipase (HL) (setting [1]) and at Endothelial lipase (EL) (setting [2]) were 402 nM and less than 10 nM, respectively.

As for `COC1CN(C(=O)c2ccc(-c3ccc4nc(C(C(=O)NCCS(N)(=O)=O)S(C)(=O)=O)sc4c3)cc2)C1` (centres unmarked) [Example B175, 2-(6-(4-((3-methoxy-1-azetidinyl)carbonyl)phen-yl)-1,3-benzothiazol-2-yl)-2-(methylsulfonyl)-N-(2-sulfamoylethyl)a-cetamide], the IC50 was 118 nM against hepatic lipase (HL) and less than 10 nM on Endothelial lipase (EL).

Consider `CC1(O)CCN(C(=O)c2ccc(-c3ccc4nc(C(C(=O)NCCS(N)(=O)=O)S(C)(=O)=O)sc4c3)cc2)CC1` (centres unmarked) [Example B176, 2-(6-(4-((4-hydroxy-4-methyl-1-piperidinyl)car-bonyl)phenyl)-1,3-benzothiazol-2-yl)-2-(methylsulfonyl)-N-(2-sulfamoylethyl)acetamide], for which the IC50 on hepatic lipase (HL) is 92 nM; against Endothelial lipase (EL), less than 10 nM.

On to `CS(=O)(=O)C(C(=O)NCCS(N)(=O)=O)c1nc2ccc(-c3ccc(C(=O)N4CCC(O)CC4)cc3)cc2s1` (centres unmarked) [Example B177, 2-(6-(4-((4-hydroxy-1-piperidinyl)carbonyl)phen-yl)-1,3-benzothiazol-2-yl)-2-(methylsulfonyl)-N-(2-sulfamoylethyl)a-cetamide], for which the values for the IC50 at hepatic lipase (HL) and on Endothelial lipase (EL) were 495 nM and less than 10 nM, respectively.

Take `CS(=O)(=O)C(C(=O)NCCS(N)(=O)=O)c1nc2ccc(-c3ccc(C(=O)NC4COC4)cc3)cc2s1` (centres unmarked) [Example B178, 4-(2-(1-(methylsulfonyl)-2-oxo-2-((2-sulfamoylethyl)a-mino)ethyl)-1,3-benzothiazol-6-yl)-N-3-oxetanylbenzamide]: the IC50 at hepatic lipase (HL) was 91 nM; on Endothelial lipase (EL), less than 10 nM.

Regarding `COCCNC(=O)c1cccc(-c2ccc3nc(C(C(=O)NCCS(N)(=O)=O)S(=O)(=O)CCC(F)(F)F)sc3c2)c1` (centres unmarked) [Example B179, N-(2-Methoxyethyl)-3-(2-(2-oxo-2-((2-sulfamoyl-ethyl)amino)-1-((3,3,3-trifluoropropyl)sulfonyl)eth-yl)benzo[d]thiazol-6-yl)benzamide], the IC50 against hepatic lipase (HL) was 170 nM; at Endothelial lipase (EL), 24 nM.

Turning to `CS(=O)(=O)C(C(=O)NCCS(N)(=O)=O)c1nc2ccc(-c3ccc4c(c3)CC(=O)N4)cc2s1` (centres unmarked) [Example B180, 2-(Methylsulfonyl)-2-(6-(2-oxo-2,3-dihydro-1H-indol-5-yl)-1,3-benzothiazol-2-yl)-N-(2-sulfamoylethyl)acetamide], the results for the IC50 on hepatic lipase (HL) (setting [1]) and on Endothelial lipase (EL) (setting [2]) were 170 nM and less than 10 nM, respectively.
